{
  "source": "patent US20240140970A1",
  "about": "“A […], AND PREPARATION METHOD AND USE THEREOF” (ASCENTAWITS PHARMACEUTICALS, LTD., priority 2021, published 2024)",
  "assay": "Stability of AST-2660 in human plasma at −20° C. and −70° C. for one month (LC-MS/MS)",
  "format": "in vitro ADME",
  "description": "The detection method established in example 4 was used to detect the content of AST-2660 in the human plasma to be tested.\nMatrix: the mixed normal human plasma containing anticoagulant (K2 EDTA) • a: the internal standard working solution: AST-2660-D8 was taken, added with methanol, and diluted to prepare a solution containing about 100 ng per 1 ml. • b: the solution to be tested (no internal standard compound was added to the solution to be tested at this time): it was obtained by taking a blood sample to be tested. • c: the standard working solution (no internal standard compound was added to the standard working solution at this time): an appropriate amount of AST-2660 was taken and accurately weighed, dissolved with methanol, and diluted to prepare a solution containing about 1.0 mg per 1 ml, which was used as the standard working stock solution. An appropriate amount of the standard working stock solution was taken, added with the matrix and diluted to prepare standard working solutions with different concentrations containing about 200 ng, 160 ng, 100 ng, 50 ng, 10 ng, 2.0 ng, 1.0 ng and 0.5 ng per 1 ml, respectively. (The solution was stored at −70° C.) • d: the quality control sample solution: an appropriate amount of AST-2660 was taken and accurately weighed, dissolved with methanol, and diluted to prepare a solution containing about 10 μg per 1 ml, which was used as the quality control working stock solution. An appropriate amount of the quality control working stock solution was taken, added with matrix to prepare quality control working solutions with different concentrations containing about 150 ng, 60 ng, 15 ng, 1.5 ng and 0.5 ng per 1 ml. (The solution was stored at −70° C.)\nThe solution to be tested, the standard working solution and the quality control sample solution were thawed at room temperature and mixed uniformly. 100 μl of the above solution was respectively taken, added with 20 μl of the internal standard and 500 μl of methanol, and vortexed for 3 minutes to mix uniformly, and then centrifuged for 10 minutes at 2143 rcf. 450 μl of the supernatant was taken and dried, and 150 μl of methanol was added for redissolution, and sonicated. Then the plates were centrifuged for 3 minutes at 4° C. It was obtained by taking […] of supernatant.\nLiquid phase conditions: A SHARC 1, 3 μm, 2.1*50 mm or chromatograph column with equivalent performance was used; the mobile phase was a methanol solution comprising low content of ammonium acetate; the mobile phase B was acetonitrile; the gradient elution was performed according to the following table, column temperature: 20° C.; injection volume: 5 μl.\nMass spectrometric conditions: electrospray ion source with negative ion scanning mode; spray potential: −4500 V; ion source temperature: 500° C.; collision energy (CE): −22 eV; declustering potential (DP): −55V; entrance potential (EP): −10V; collision chamber exit potential (CXP): −16V; dwell time: 100 ms; high purity nitrogen was used for all gases; AST-2660 ions pairs: m/z 147.0→m/z 62.9; the internal standard AST-2660-D8 ion pairs: m/z 155.0→m/z 62.9.\nThe AST-2660 standard working solution, blank sample, zero concentration sample, sample solution to be tested and quality control sample solution with different concentrations after extraction were respectively taken and injected into LC-MS/MS for detection.\nCalculation results: the relationship function y=f (x) of the ratio of the peak area of the AST-2660 to that of the internal standard was obtained from AST-2660 standard working solutions with different concentrations. The ratio of the peak area of the AST-2660 to that of the internal standard was determined from the solution to be tested after extraction, and substituted into the relationship function y=f (x) to calculate the concentration of the metabolite II in the solution to be tested.",
  "key": {"[1]": {"details": "QC1 nominal 1.50 ng/ml, 28 days at −20° C."}, "[2]": {"details": "QC1 nominal 1.50 ng/ml, 28 days at −70° C."}, "[3]": {"details": "QC4 nominal 150 ng/ml, 28 days at −20° C."}, "[4]": {"details": "QC4 nominal 150 ng/ml, 28 days at −70° C."}},
  "note": "Values joined by “and” are separate entries in the source; they are usually repeats but may differ in a detail not shown here. Identical values can stand only once.",
  "data": [
    {"molecule": "O=P([O-])(N1CC1)N1CC1.[Na+]", "note": "[AST-2660]", "values": [
      {"measurement": "change of AST-2660 content (in words)", "setting": "28 days of storage at −20° C.", "result": "reduced significantly"},
      {"measurement": "change of AST-2660 content (in words)", "setting": "28 days of storage at −70° C.", "result": "almost no reduction"},
      {"measurement": "RE (%) vs nominal", "setting": "DilQC (10-fold dilution) nominal 1500 ng/ml, 28 days at −20° C.", "result": "−32.5", "unit": "%"},
      {"measurement": "RE (%) vs nominal", "setting": "DilQC (10-fold dilution) nominal 1500 ng/ml, 28 days at −70° C.", "result": "−6.2", "unit": "%"},
      {"measurement": "AST-2660 concentration, Mean value", "setting": "[1]", "result": 1.11, "unit": "ng/mL"},
      {"measurement": "AST-2660 concentration, single replicates", "setting": "[1]", "result": "1.01 ng/mL and 1.03 ng/mL and 1.14 ng/mL and 1.25 ng/mL"},
      {"measurement": "RE (%) vs nominal", "setting": "[1]", "result": "−26.2", "unit": "%"},
      {"measurement": "AST-2660 concentration, Mean value", "setting": "[2]", "result": 1.53, "unit": "ng/mL"},
      {"measurement": "AST-2660 concentration, single replicates", "setting": "[2]", "result": "1.52 ng/mL and 1.53 ng/mL and 1.59 ng/mL and 1.49 ng/mL"},
      {"measurement": "RE (%) vs nominal", "setting": "[2]", "result": 2.2, "unit": "%"},
      {"measurement": "AST-2660 concentration, Mean value", "setting": "[3]", "result": 146, "unit": "ng/mL"},
      {"measurement": "AST-2660 concentration, single replicates", "setting": "[3]", "result": "147 ng/mL and 141 ng/mL and 149 ng/mL and 145 ng/mL"},
      {"measurement": "RE (%) vs nominal", "setting": "[3]", "result": "−3.0", "unit": "%"},
      {"measurement": "AST-2660 concentration, Mean value", "setting": "[4]", "result": 145, "unit": "ng/mL"},
      {"measurement": "AST-2660 concentration, single replicates", "setting": "[4]", "result": "142 ng/ml (2×) and 150 ng/ml and 145 ng/ml"},
      {"measurement": "RE (%) vs nominal", "setting": "[4]", "result": "−3.5", "unit": "%"}
    ]}
  ]
}
